Reference: ChEMBL document CHEMBL4196027, “Structure-based discovery of cytotoxic dimeric tetrahydroxanthones as potential topoisomerase I inhibitors from a marine-derived fungus” (Eur J Med Chem, 2018)
Active and inactive are the calls of the source. The calls are words filed in the database; no cut-off is given here.

Experiments:
A549 = test: Cytotoxicity against human A549 cells assessed as reduction in cell proliferation after 48 hrs by MTT assay; assay type: functional, cell-based
K562 = test: Cytotoxicity against human K562 cells assessed as reduction in cell proliferation after 48 hrs by MTT assay; assay type: functional, cell-based
[1] = Cytotoxicity against human HO8910 cells assessed as reduction in cell proliferation after 48 hrs by MTT assay; assay type: functional, cell-based
MGC-803 = test: Cytotoxicity against human MGC803 cells assessed as reduction in cell proliferation after 48 hrs by MTT assay; assay type: functional, cell-based
HCT-116 = test: Cytotoxicity against human HCT116 cells assessed as reduction in cell proliferation after 48 hrs by MTT assay; assay type: functional, cell-based
HL-60 = test: Cytotoxicity against human HL60 cells assessed as reduction in cell proliferation after 48 hrs by MTT assay; assay type: functional, cell-based
NCI-H1975 = test: Cytotoxicity against human NCI-H1975 cells assessed as reduction in cell proliferation after 48 hrs by MTT assay; assay type: functional, cell-based
HEK293 = test: Cytotoxicity against HEK293 cells assessed as reduction in cell proliferation after 48 hrs by MTT assay; assay type: cell-based; conditions: Homo sapiens, HEK293, 48 h
[2] = biological target: T1, DNA topoisomerase 1 (Homo sapiens) (UniProt P11387); test: Inhibition of DNA topoisomerase-1 (unknown origin) up to 40 uM using supercoiled pBR322 DNA as substrate preincubated with enzyme followed by substrate addition measured after 30 mins by ethidium bromide staining based agarose gel electrophoresis method
T1 sequence (whole entry): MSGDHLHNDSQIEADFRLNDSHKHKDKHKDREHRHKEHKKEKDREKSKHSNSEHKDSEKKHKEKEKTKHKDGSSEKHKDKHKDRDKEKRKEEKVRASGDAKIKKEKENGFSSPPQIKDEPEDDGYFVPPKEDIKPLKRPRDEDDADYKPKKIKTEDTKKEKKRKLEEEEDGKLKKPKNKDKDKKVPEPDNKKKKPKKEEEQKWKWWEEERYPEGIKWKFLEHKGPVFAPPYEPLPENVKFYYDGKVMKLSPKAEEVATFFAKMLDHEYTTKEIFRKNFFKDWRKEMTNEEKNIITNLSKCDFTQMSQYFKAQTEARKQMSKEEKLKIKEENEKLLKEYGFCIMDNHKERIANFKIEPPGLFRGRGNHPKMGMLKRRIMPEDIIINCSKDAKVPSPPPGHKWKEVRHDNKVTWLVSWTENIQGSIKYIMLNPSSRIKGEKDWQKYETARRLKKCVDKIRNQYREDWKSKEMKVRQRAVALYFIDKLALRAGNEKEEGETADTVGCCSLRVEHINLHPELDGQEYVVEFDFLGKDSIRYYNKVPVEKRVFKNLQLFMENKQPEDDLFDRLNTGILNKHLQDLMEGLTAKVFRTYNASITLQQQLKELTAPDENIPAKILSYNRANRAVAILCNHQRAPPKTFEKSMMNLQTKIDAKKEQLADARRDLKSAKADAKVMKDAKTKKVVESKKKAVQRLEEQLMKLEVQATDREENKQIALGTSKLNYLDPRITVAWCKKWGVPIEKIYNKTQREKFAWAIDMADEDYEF

[3] = biological target: T2, Topoisomerase I (Bos taurus) (UniProt Q2HPH0); test: Inhibition of calf thymus DNA topoisomerase-1-mediated supercoiled pBR322 DNA relaxation assessed as stabilization of enzyme-DNA complex at 100 uM preincubated with enzyme followed by substrate addition measured after 30 mins by ethidium bromide staining based agarose gel electrophoresis method
T2 sequence (whole entry): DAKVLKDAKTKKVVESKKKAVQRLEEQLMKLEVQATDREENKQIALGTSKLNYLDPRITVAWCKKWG

Homo sapiens = species: Homo sapiens; test: Inhibition of DNA topoisomerase-2 (unknown origin) at 100 uM using kinetoplast DNA as substrate measured after 30 mins by ethidium bromide staining based agarose gel electrophoresis method
[4] = biological target: T2, Topoisomerase I (Bos taurus); conditions: 40 uM
Description: Inhibition of calf thymus DNA topoisomerase-1-mediated supercoiled pBR322 DNA relaxation assessed as stabilization of enzyme-DNA complex at 40 uM preincubated with enzyme followed by substrate addition measured after 30 mins by ethidium bromide staining based agarose gel electrophoresis method

DNA = test: Inhibition of ethidium bromide binding to Escherichia coli pBR322 DNA at 100 uM after 30 mins by fluorescence assay; assay type: nucleic-acid assay

Structure (SMILES) | IC50 (A549; Homo sapiens, A549, 48 h) [µM] | IC50 (K562; Homo sapiens, K562, 48 h) [µM] | IC50 ([1]; Homo sapiens, HO-8910, 48 h) [µM] | IC50 (MGC-803; Homo sapiens, MGC-803, 48 h) [µM] | IC50 (HCT-116; Homo sapiens, HCT-116, 48 h) [µM] | IC50 (HL-60; Homo sapiens, HL-60, 48 h) [µM] | IC50 (NCI-H1975; Homo sapiens, NCI-H1975, 48 h) [µM] | IC50 (HEK293) [µM] | other results
COC(=O)[C@@]12Oc3c(-c4ccc(O)c5c4O[C@]4(C(=O)OC)C(=C(O)C[C@H](C)[C@H]4O)C5=O)ccc(O)c3C(=O)C1=C(O)C[C@H](C)[C@H]2O | 11.7 | 0.4 | 1.4 | 0.9 | 0.5 | 0.9 | 3.5 |  | 
COC(=O)[C@@]12Oc3ccc(-c4ccc(O)c5c4O[C@]4(C(=O)OC)C(=C(O)C[C@H](C)[C@H]4O)C5=O)c(O)c3C(=O)C1=C(O)C[C@H](C)[C@H]2O | 1.6 | 1.1 | 1.5 | 1.1 | 1.2 | 0.5 |  |  | 
COC(=O)c1c(O)c(C)cc(O)c1C(=O)c1c(O)ccc(-c2ccc3c(c2O)C(=O)C2=C(O)C[C@H](C)[C@@H](O)[C@]2(C(=O)OC)O3)c1O | > 50 | > 50 | > 50 |  | > 50 | 27.8 | > 50 | > 50 | 
COC(=O)[C@@]12Oc3ccc(-c4ccc(O)c5c4O[C@]4(C(=O)OC)C(=C(O)C[C@H](C)[C@H]4O)C5=O)c(O)c3C(=O)C1=C(O)C[C@H](CO)[C@H]2O | > 50 | > 50 | > 50 |  | > 50 | 47.3 | > 50 | > 50 | 
COC(=O)[C@@]12Oc3c(-c4ccc5c(c4O)C(=O)C4=C(O)C[C@H](C)[C@@H](O)[C@]4(C(=O)OC)O5)ccc(O)c3C(=O)C1=C(O)C[C@H](CO)[C@H]2O | > 50 | > 50 | > 50 | > 50 | > 50 | 49.5 | 49.5 | > 50 | inhibition [2]: Active; inhibition [3]: Active; inhibition (Homo sapiens): inactive
CC[C@@]1(O)C(=O)OCc2c1cc1n(c2=O)Cc2cc3cc(O)ccc3nc2-1 |  |  |  |  |  |  |  |  | inhibition [4]: Active
COc1cc(NS(C)(=O)=O)ccc1Nc1c2ccccc2nc2ccccc12 |  |  |  |  |  |  |  |  | inhibition (DNA): Active
COC(=O)[C@@]12Oc3cc(C)c(-c4ccc5c(c4O)C(=O)C4=C(O)C[C@H](C)[C@@H](O)[C@]4(C(=O)OC)O5)c(O)c3C(=O)C1=C(O)CC[C@H]2O (stereo in doubt; 2) [listing 1 of 2 here] |  |  |  |  |  |  |  |  | IC50 (A549; a549): 19.2 µM; IC50 (K562; k562): 22.1 µM; IC50 [1]: 6.9 µM; IC50 (MGC-803; mgc-803): 6.2 µM; IC50 (HCT-116; hct-116): 15.2 µM; IC50 (HL-60; hl-60): 6.9 µM; IC50 (NCI-H1975; nci-h1975): 5.3 µM
COC(=O)[C@@]12Oc3cc(C)c(-c4ccc5c(c4O)C(=O)C4=C(O)C[C@H](C)[C@@H](O)[C@]4(C(=O)OC)O5)c(O)c3C(=O)C1=C(O)CC[C@H]2O (stereo in doubt; 2) [listing 2 of 2 here] |  |  |  |  |  |  |  |  | inhibition [2]: Active; inhibition [3]: Active; inhibition (Homo sapiens): inactive
